# From US10189803B2, “Synthesis of therapeutic and diagnostic drugs centered on regioselective and stereoselective ring opening of aziridinium ions” (ILLINOIS INSTITUTE OF TECHNOLOGY, priority 2008, dated 2019)
# Assays:
# MRC-5 cells = test: Antiproliferative activity in non-cancer lung fibroblast MRC-5 cells; format: cell-based, human; conditions: FIG. 20
# Experimental: The cytotoxicity of the chelators in the cancer cells was compared to their cytotoxicities in non-cancer cells using human lung fibroblast cell (MRC-5).
# Cell culture Human cervix HeLa cell line was obtained from ATCC (Rockville, Md.) and cultured in minimum essential medium (MEM) with L-glutamine (2 mM), Earle's BSS and sodium bicarbonate (1.5 g/L), supplemented with 10% fetal bovine serum (FBS), non-essential amino acids (0.1 mM), sodium pyruvate (1 mM) and antibiotic/antimycotic solution in a humidified atmosphere with 5% CO2 at 37° C. Human colon cancer cell line HT29 was maintained in a humidified atmosphere with 5% CO2 at 37° C. in RPMI-1640 medium, containing 10% FBS with L-glutamine and antibiotic/antimycotic. Lung fibroblast MRC-5 cell line was obtained from ATCC (Rockville, Md.) and cultured in ATCC formulated EMEM, supplemented with 10% fetal bovine serum (FBS) in a humidified atmosphere with 5% CO2 at 37° C.
# Antiproliferative Activity. […] Optical absorbance at 490 nm was then recorded with an enzyme-linked immunosorbent assay (ELISA) microtiter plate reader (Biotek). […] Antiproliferative activity of the test compounds was expressed as the fraction of optical densities of treated the cells relative to the untreated solvent controls.^31 The data were plotted in GraphPad Prizm 3.0. […]
# Hela cells [1] = test: Antiproliferative activity, MTS assay, HeLa cells; format: cell-based, Human; conditions: for IC50: 72 h incubation, MTS; for cytotoxicity in HeLa cells over a series of concentrations (in words): FIG. 18
# Summary of the method: (§1)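 HeLa cells (2,000/well) and HT29 cells (5,000/well) were allowed to attach for 24 h, then exposed to at least five compound dilutions for 72 h. Viability was read by MTS/PMS reduction (3 h, 37° C, A490). IC50 was obtained by nonlinear regression of OD as a fraction of solvent control, at least in triplicate.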
# HT29 cells = test: Antiproliferative activity, MTS assay, HT29 cells; format: cell-based, Human; conditions: 72 h incubation
# Summary of the method: as §1
# Hela cells [2] = test: Iron saturation experiment, Hela cell growth (MTS); format: cell-based, Human; conditions: for effect on Hela cells saturated with Fe(III)-citrate (in words): chelator 50 μM, Fe(III)-citrate 50 μM
# Experimental: Cytotoxicity of the new chelators was measured in the HeLa and HT29 cancer cells and compared to that of the clinically used iron chelators DFO and DTPA. […] The preliminary cell culture experiments were performed to see ifNETA is an effective cytotoxic agent. […] In order to investigate the effect of the chelators on the cellular growth, the Hela cancer cells saturated with Fe(III)-citrate (50 μM) were incubated with each of the chelators (50 μM).
# Iron Saturation Experiment Hela Cells were inoculated onto 96-well plates at density of 2,000 per well in 0.1 mL complete medium and incubated for 24 h. […] Control samples containing no ferric citriate were also tested. […] After the incubation, cells proliferation rates were evaluated by MTS assay.
# [3] = Complexation kinetics with Bi(III), Arsenazo III (AAIII) spectroscopic competing reaction; format: physicochemical; conditions: pH 4.0 (0.15M NH4OAc), 25° C., 1 hour
# Experimental: The novel ligand DEPA was further evaluated for the complexation kinetics with other metals. The complexation kinetics of the ligand DEPA with Bi(III) was determined using a well-known spectroscopic competing reaction with AAIII according to a modification of the reported procedure (Kodama, M.; Koike, T.; Mahatma, A. B.; Kimura, E. Inorg. Chem. 1991, 30, 1270). AAIII is known to form a weak complex with many different metals, which produce a UV absorbance maximum between ˜652 nm. However, uncomplexed AAIII absorb little at this wavelength. When introduced to a solution containing the AAIII-metal complex, a chelate can compete with AAIII for the metal. The idea is that if the chelate is more capable of binding the metal than AAIII, the metal will dissociate from the AAIII complex and form a complex with the chelate leading to the decrease in the absorbance at the wavelength. The absorbance (A652) for AAIII-Bi(III) complex was measured in the absence and in the presence of the ligands over 1 hour at rt. The complexation kinetics of Bi(III) was determined at pH 4.0 as hydrolysis occurs at a higher pH. The complexation result of the new ligands studied herein was compared to that of DOTA.
# General procedure for complexation kinetics using AAIII. The kinetics experiments were performed as previously described. […]
# [4] = T1 relaxivity of Gd(III) complexes (Bruker mq60 NMR analyzer); format: physicochemical; conditions: aqueous Gd(III) complexes, ~pH 7, 60 MHz
# Experimental: Gd(NE3TA) and Gd(NE3TA-Bn) were synthesized by reacting GdCl3 with NE3TA and NE3TA-Bn, respectively. NE3TA or NE3TA-Bn were mixed with GdCl3 in a molar ratio of 1 to 0.9, and the resulting mixture at pH 7 was heated to 90° C. and stirred until no free Gd(III) ions were detected using an ArsenazoIII (AAIII) assay. Relaxivity of the aqueous […] complexes (pH 7) was measured on a Bruker MQ60 NMR analyzer, and the concentration of the Gd(III) complexes was measured by ICP-MS. […] NE3TA was successfully conjugated with the most common bile acid, cholic acid (FIG. 41).
# (§2) Relaxivity Measurements. Relaxivity measurements were acquired by taking the slope of a plot of 1/T1 (s^−1) versus concentration (mM). The longitudinal water proton relaxation times (T1) were determined using a Bruker mq60 NMR (Bruker Canada, Milton, ON, Canada) analyzer operating at 59.97 MHz and 37° C. The agent was added to Millipore water and serially diluted by 0.5 to give a series of 5 concentrations (500 μL total volume) for each relaxivity trial. The T1 was determined using an inversion recovery pulse sequence with 10 different pulse separations per sample, 4 repetitions per echo time, phase cycling, and a recycle delay that is ≥5 times the T1 of each given sample. All curves were fit using a monoexponential curve fitting formula.
# Relaxivity of the aqueous Gd(III) complexes (˜pH 7) were measured on a Bruker MQ60 NMR analyzer, and the concentration of the Gd(III) complexes were measured by ICP-MS. […] As mentioned above, the on and off binding to Gd(III) of one of the pendant coordinates would have resulted enhanced relaxivity of Gd(C-NETA) compared to Gd(C-DOTA). Among the evaluated Gd(III) complexes, Gd(C-NE3TA) gives the highest T1 relaxivity at 60 MHz, probably due to increase in q. The relaxation rates for the Gd(III) chelates are dominated by the inner-sphere dipolar coupling between the coordinated water molecule and the paramagnetic Gd(III). The measured relaxivities arise from the exchange between the coordinated water molecule and the surrounding water molecules in solution. […] No indication of Gd(III) dissociation is evident from the relaxivity data, which is in agreement with the in vitro serum stability and in vivo biodistribution studies.
# as §2, with “The T1 relaxivity was determined” for “The T1 was determined”
# [5] = Complexation kinetics with Lu(III), AAIII assay; format: physicochemical
# Experimental: In summary, the novel decadentate ligand DEPA having both macrocyclic and acyclic metal binding moieties was efficiently prepared.
# General procedure for complexation kinetics using AAIII. The kinetics experiments were performed as previously described. Ultrapure ammonium acetate (Aldrich, #431311) and hydrochloric acid solution (J. T. Baker, #JT6900-5) were purchased and used as received. All buffer solutions were prepared using deionized water (Milli-Q®, 18 MΩ). Metal-free stock solutions of all NH4OAc buffers (0.15 M, pH 4 or pH 4.5) were prepared using Chelex-100 resin (100-200 mesh, Bio-Rad Lab, Hercules, Calif.). Chelex resin (5 g) was added into the butter solution (100 mL) and the mixture was shaken for 1 h in a shaker (Eberbach), stored in the refrigerator overnight, and filtered through a Corning filter system (430513, pore size […]). A 15 μM AAIII solution in 0.15 M NH4OAc (pH 4 or pH 4.5) were prepared by adding AAIII (5.82 mg) to the NH4OAc buffer (500 mL). A solution of Bi(III)-AAIII (7.5 μM) was freshly prepared by mixing AAIII solution (15 μM, 50 mL) in 0.15 M NH4OAc (pH 4) with Bi(III) atomic absorption standard solution (79 μL, 995 μg/mL). A solution of Lu(III)-AAIII (1.8 μM) was freshly prepared by mixing AAIII solution ([…], 50 mL) in 0.15 M NH4OAc buffer (pH 4.5) with Lu(III) atomic absorption standard solution (15.4 μL, 1014 μg/ml). […]
Compound,viability of normal MRC-5 cells compared to cancer cells (in words) (MRC-5 cells),IC50 (Hela cells [1]) [µM],cytotoxicity in HeLa cells over a series of concentrations (in words) (Hela cells [1]),IC50 (HT29 cells) [µM],effect on Hela cells saturated with Fe(III)-citrate (in words) (Hela cells [2]),"HeLa cell survival (in words) (Hela cells [2]; free ligand 50 μM, no ferric citrate)","complexation with Bi(III) (absorbance at 652 nm vs time, in words) [3]",T1 relaxivity of Gd(III) complexes of bifunctional ligands [4] [mM⁻¹ s⁻¹],complexation with Lu(III) (in words) [5]
"O=C(O)CN(CCN(CC(=O)O)CC(=O)O)CCN(CC(=O)O)CC(=O)O [DTPA, diethylenepentaacetic acid, reference compound]",much enhanced viability of normal cells,264 ± 36.2,almost no cytotoxicity,39.1 ± 4,almost no anti-proliferative activity,almost all HeLa cells incubated with DTPA (50 μM) survived,,,
"CC(=O)N(O)CCCCCNC(=O)CCC(=O)N(O)CCCCCNC(=O)CCC(=O)N(O)CCCCCN [DFO, desferoxamine, reference compound]",little change in cell viability,> 50,not concentration-dependent,36.1 ± 1.4,modest increase in cell viability,,,,
"O=C(O)CN1CCN(CC(=O)O)CCN(CC(=O)O)CCN(CC(=O)O)CC1 [DOTA, reference compound]",,,,,,,sluggish complexation,3.96,
"O=C(O)CN1CCN(CCN(CC(=O)O)CC(=O)O)CCN(CC(=O)O)CCN(CC(=O)O)CC1 [DEPA, {7-[2-(Bis-carboxymethyl-amino)-ethyl]-4,10-bis-carboxymethyl-1,4,7,10-tetraazacyclo-dodec-1-yl}-acetic acid]",,,,,,,quite prompt and substantial binding,,slow in binding
